Measurements reported in ChEMBL document CHEMBL1687862, “Prenylated flavanones with anti-tyrosinase activity from Dalea boliviana” (J Nat Prod, 2011).

How the values were obtained:
[1] = biological target: T1, Tyrosinase (Agaricus bisporus) (UniProt O42713); assay: Inhibition of mushroom tyrosinase at 100 uM preincubated for 10 mins before addition of 1.7 mM L-tyrosine measured after 20 mins by spectrophotometric method
T1 sequence (whole entry): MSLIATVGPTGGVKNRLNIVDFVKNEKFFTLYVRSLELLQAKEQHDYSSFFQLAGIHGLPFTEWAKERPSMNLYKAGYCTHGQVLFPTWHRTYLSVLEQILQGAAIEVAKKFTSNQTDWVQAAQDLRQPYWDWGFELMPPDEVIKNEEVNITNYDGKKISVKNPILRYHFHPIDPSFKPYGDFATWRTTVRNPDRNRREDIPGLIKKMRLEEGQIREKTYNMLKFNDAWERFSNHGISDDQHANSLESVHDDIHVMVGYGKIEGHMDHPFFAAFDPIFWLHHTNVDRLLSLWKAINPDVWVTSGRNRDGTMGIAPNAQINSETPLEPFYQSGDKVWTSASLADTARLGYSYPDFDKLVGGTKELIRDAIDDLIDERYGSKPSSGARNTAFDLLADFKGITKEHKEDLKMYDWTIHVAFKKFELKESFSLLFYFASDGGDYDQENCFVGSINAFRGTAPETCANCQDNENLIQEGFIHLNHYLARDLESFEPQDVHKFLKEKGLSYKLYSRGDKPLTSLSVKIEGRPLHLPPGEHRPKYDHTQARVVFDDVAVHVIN

Tyrosinase = biological target: T2, Tyrosinase (Agaricus bisporus, UniProt O42713); assay: (§1) Inhibition of mushroom tyrosinase preincubated for 10 mins before addition of 1.7 mM L-tyrosine measured after 20 mins by spectrophotometric method
T2 sequence (O42713 whole entry): T1 sequence (whole entry)

[2] = biological target: T1, Tyrosinase (Agaricus bisporus); assay: as §1

Structure (SMILES)	inhibition [1]	IC50 (Tyrosinase)	IC5 [2]
CC1(C)C=Cc2c(cc(O)c3c2O[C@H](c2ccccc2)CC3=O)O1	16.2%	–	–
O=C1C[C@@H](c2ccc(O)cc2)Oc2cc(O)cc(O)c21	2.8%	–	–
CC(C)=CCc1cccc([C@@H]2CC(=O)c3c(O)cc4c(c3O2)C=CC(C)(C)O4)c1O	6.4%	–	–
COc1ccc([C@@H]2CC(=O)c3c(O)cc(O)cc3O2)cc1O	0%	–	–
CC(C)=CCc1cccc([C@@H]2CC(=O)c3c(O)cc(O)c(CC=C(C)C)c3O2)c1O	87.8%	68.5 µM	–
C=CC(C)(C)c1ccc(O)c([C@@H]2CC(=O)c3c(O)cc(O)c(CC=C(C)C)c3O2)c1	82.1%	–	27.5 µM
